Laboratory results reported in patent US20240059693A1, “FUSED BICYCLIC PYRAZOLE DERIVATIVES AND METHODS OF USE THEREOF FOR THE TREATMENT OF HERPESVIRUSES” (Merck Sharp & Dohme LLC, priority 2020, published 2024).
Read-outs that look alike come from different tables or passages of the source.

How the values were obtained:
[1] = test system: HSV2; assay: Viral qPCR assay, HSV2 in MRC5 cells; type: cell-based, Herpes Simplex Virus type 2; details: read-out: HSV2 MRC5 Cell (EC50)
Method: (§1) MRCS cells, Vero cells, and MeWo cells were obtained from ATCC and were maintained at 37° C./5% CO2/90% relative humidity in Minimal Essential Medium with 10% fetal bovine serum, […] L-glutamine, 100 units/ml penicillin and 100 ug/ml streptomycin. Assay plates were prepared by dispensing compounds dissolved in DMSO into wells of 384 well collagen-coated plates using an ECHO acoustic dispenser. Each compound was tested in a 10-point, serial 3-fold dilution. Controls included uninfected cells and infected cells treated only with DMSO. Assays were initiated by mixing selected cells, in suspension, with virus, and dispensing 50 μl/well infected cells to pre-plated compounds. Plates were incubated at 37° C./5% CO2/90% relative humidity for ˜72 hrs to permit genomic replication, and infected cells were lysed by the addition of an equal volume of lysis buffer (10 mM Tris-HCl, pH8, 50 mM KCl, 2 mM MgCl2, 0.45% NP-40, 0.45% Tween-20, and 100 μg/ml proteinase K). An aliquot of the lysate was transferred to a 384-well PCR plate and incubated at 56° C. for 1 hour and then at 95° C. for 10 min. Levels of a viral gene and of the cellular control, PPIA (Thermo Fisher Assay ID=Hs04194521_s1), were measured in separate 10 μL qPCR assays using TaqMan® Gene Expression Master Mix (Applied Biosystems), and an 7900HT Fast Real-Time PCR System with 384-Well Block Module. 7-point, serial 10-fold dilutions of a plasmid standard were run on each plate to generate a standard curve, and genome copies numbers were calculated by plotting experimental Ct onto linear regression of the standard curve. Viral genome copy numbers were normalized by cellular control copy number, and compound effects were normalized to the window defined by the controls. Calculated % effects were fit using a 4-parameter algorithm, and EC50 was reported.
as §1, with “gene” for “gene and of the cellular control, PPIA (Thermo Fisher Assay ID=Hs04194521_s1),”, “in” for “in separate”, “Compound effects on viral” for “Viral”, “number” for “numbers were normalized by cellular control copy number, and compound effects”

[2] = target: T1, Human cytomegalovirus DNA polymerase (Human cytomegalovirus, UniProt P08546); assay: HCMV polymerase assay (AlphaLISA); type: biochemical; details: HCMV DNA polymerase 0.2 nM, 60 minutes at 37° C.; read-out: CMV (IC50)
T1 construct: made in house; host or cells: SF21 insect cells (baculovirus vector)
T1 sequence (P08546 whole entry): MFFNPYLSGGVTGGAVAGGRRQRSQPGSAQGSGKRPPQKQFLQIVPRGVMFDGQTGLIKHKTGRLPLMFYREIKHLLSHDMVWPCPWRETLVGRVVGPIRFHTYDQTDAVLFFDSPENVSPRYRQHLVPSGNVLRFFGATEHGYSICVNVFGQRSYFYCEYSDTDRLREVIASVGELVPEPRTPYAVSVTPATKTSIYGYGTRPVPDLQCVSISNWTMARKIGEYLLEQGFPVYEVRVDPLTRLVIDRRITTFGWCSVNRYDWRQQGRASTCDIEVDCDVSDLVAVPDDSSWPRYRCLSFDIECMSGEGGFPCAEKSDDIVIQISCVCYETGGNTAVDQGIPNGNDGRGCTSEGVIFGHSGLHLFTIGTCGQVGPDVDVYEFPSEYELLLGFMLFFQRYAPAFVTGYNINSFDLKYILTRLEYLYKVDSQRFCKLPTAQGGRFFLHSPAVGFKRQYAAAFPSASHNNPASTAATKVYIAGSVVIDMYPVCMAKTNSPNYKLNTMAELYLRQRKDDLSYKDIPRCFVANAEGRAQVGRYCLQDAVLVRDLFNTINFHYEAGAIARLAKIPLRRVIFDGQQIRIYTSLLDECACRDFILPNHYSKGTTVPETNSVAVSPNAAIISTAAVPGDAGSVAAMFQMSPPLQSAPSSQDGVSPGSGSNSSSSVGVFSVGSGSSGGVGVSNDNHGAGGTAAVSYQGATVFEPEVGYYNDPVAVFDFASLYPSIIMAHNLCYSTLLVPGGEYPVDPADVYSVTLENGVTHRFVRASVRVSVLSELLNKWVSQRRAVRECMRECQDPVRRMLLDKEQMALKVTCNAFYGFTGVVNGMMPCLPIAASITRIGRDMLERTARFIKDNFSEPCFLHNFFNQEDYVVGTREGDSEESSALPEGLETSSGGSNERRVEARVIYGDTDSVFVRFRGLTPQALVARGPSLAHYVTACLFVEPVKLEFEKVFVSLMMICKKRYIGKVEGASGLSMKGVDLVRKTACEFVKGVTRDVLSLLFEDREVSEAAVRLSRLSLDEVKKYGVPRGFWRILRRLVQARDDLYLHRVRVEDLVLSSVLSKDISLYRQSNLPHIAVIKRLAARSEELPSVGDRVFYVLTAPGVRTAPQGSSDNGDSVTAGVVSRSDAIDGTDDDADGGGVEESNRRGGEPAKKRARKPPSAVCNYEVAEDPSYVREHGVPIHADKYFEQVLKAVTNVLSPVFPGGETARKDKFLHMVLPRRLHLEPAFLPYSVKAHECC
Method: Human cytomegalovirus and varicella zoster virus DNA polymerases were expressed via baculovirus vector in SF21 cells and purified. Heterodimeric nucleic acid substrate used in the herpesvirus polymerase reactions was generated by annealing a 59-mer template to a 17-mer digoxigenin-labeled primer. Polymerase (HCMV final concentration of 0.2 nM; VZV final concentration of 0.4 nM) was combined with an inhibitor compound or DMSO in assay buffer (10 mM HEPES, pH 7.5, 25 mM KCl, 25 mM NaCl, 5 mM MgCl2, 5% glycerol, 0.67 mg/ml bovine serum albuminutes, and 1 mM tris(2-carboxyethyl)phosphine), and this mixture was pre-incubated for 30 minutes at room temperature in 384-well microtiter plates. The polymerization reaction was initiated by the addition of template/primer substrate (final concentration: 1.6 nM), and dNTPs (final concentration: 24 nM dCTP, 24 nMdGTP, 16 nM dATP, 16 nM dTTP, and 0.8 nM biotin-dUTP). After 60 minutes incubation at 37° C., reactions were terminated with quench buffer (25 mM HEPES pH 7.5, 100 mM NaCl, 0.25% Tween-20, 12 mM EDTA, and 1 mg/ml bovine serum albumin). Incorporation of biotinylated UTP was detected with 2.5-ug/ml anti-DIG AlphaLISA acceptor beads and 5-10 ug/ml streptavidin AlphaLISA donor beads (Perkin Elmer). Compound effects were normalized to the window defined by the controls (DMSO only and pre-quenched wells) and were fit using a 4-parameter algorithm to report an IC50.

[3] = test system: HCMV Strain AD169; assay: Viral qPCR assay, HCMV in MRC-5 cells; type: cell-based, Human cytomegalovirus; details: read-out: CMV MRC5 Cell (EC50)
Method: as §1
as §1, with “gene” for “gene and of the cellular control, PPIA (Thermo Fisher Assay ID=Hs04194521_s1),”, “in” for “in separate”, “Compound effects on viral” for “Viral”, “number” for “numbers were normalized by cellular control copy number, and compound effects”
HCMV: Strain AD169 Street was assayed in MRC-5 cells and was used at 0.05-0.1 pfu/cell. The assays were performed in either growth media or in the same media with 50% fetal bovine serum. Primer-probe set was Thermo Fisher Assay ID=AIFATFK.

[4] = test system: HSV-1 Strain F; assay: Viral qPCR assay, HSV-1 in MRC5 cells; type: cell-based, Herpes Simplex Virus type 1; details: read-out: HSV1 MRC5 Cell (EC50)
Method: as §1
as §1, with “gene” for “gene and of the cellular control, PPIA (Thermo Fisher Assay ID=Hs04194521_s1),”, “in” for “in separate”, “Compound effects on viral” for “Viral”, “number” for “numbers were normalized by cellular control copy number, and compound effects”
(§2) VZV: Strain Street was maintained as an infected cell stock in MRC-5 cells. It was assayed in MeWo or MRCS cells and was used at 0.04-0.1 pfu/cell. The assays were performed in growth medium. Primer-probe set was Thermo Fisher Assay ID=AIPAEXQ. HSV-1: Strain F Street was assayed in Vero or MRCS cells and was used at 0.0005-0.004 pfu/cell in growth medium. Primer-probe set was Thermo Fisher Assay ID=AIBJZIB

[5] = test system: VZV; assay: Viral qPCR assay, VZV in MRC5 cells; type: cell-based, varicella zoster virus; details: read-out: VZV MRC5 Cell (IC50)
Method: as §1
as §1, with “gene” for “gene and of the cellular control, PPIA (Thermo Fisher Assay ID=Hs04194521_s1),”, “in” for “in separate”, “Compound effects on viral” for “Viral”, “number” for “numbers were normalized by cellular control copy number, and compound effects”
as §2

[6] = Human alphaherpesvirus 2, MRC5, 72 h
[7] = Human alphaherpesvirus 1, MRC5, 72 h
[8] = Human alphaherpesvirus 3, MRC5, 72 h
[9] = Human betaherpesvirus 5, AD169, MRC5, 72 h

Row | SMILES | EC50 ([1]; ~72 hrs) | IC50 [2] | EC50 ([3]; MRC5 cells, ~72 hrs) | EC50 ([4]; ~72 hrs) | IC50 ([5]; ~72 hrs) | EC50 [1, 6] | EC50 [4, 7] | IC50 [5, 8] | EC50 [3, 9]
1 | CC(C1CCC(=O)N1)N1Cc2c(C(=O)NCc3ccc(Cl)cc3)nn(C)c2C1 (single isomer, unassigned) [Compound 1] | 6740 nM | 235 nM | 4480 nM | 9980 nM | 7530 nM |  |  |  | 
2 | CC(C1CCC(=O)N1)N1Cc2c(C(=O)NCc3ccc(Cl)cc3)nn(C)c2C1 (single isomer, unassigned) [Compound 2] | 119 nM | 9.81 nM | 176 nM | 270 nM | 182 nM |  |  |  | 
3 | CC([C@@H]1CCC(=O)N1)N1Cc2c(C(=O)NCc3ccc(Cl)cc3)nn(-c3nccs3)c2C1 (single isomer, unassigned) [Compound 5] | 248 nM | 5.3 nM | 392 nM | 248 nM | 405 nM |  |  |  | 
4 | O=C1CC[C@H](CN2Cc3c(C(=O)NCc4ccc(Cl)cc4)nn(C4CCOC4)c3C2)N1 (single isomer, unassigned) [Compound 33] | 1410 nM | 52.5 nM | 628 nM | 1560 nM | 1960 nM |  |  |  | 
5 | O=C1CC[C@H](CN2Cc3c(C(=O)NCc4ccc(Cl)cc4)nn(C4CCOC4)c3C2)N1 (single isomer, unassigned) [Compound 34] | 1850 nM | 51.6 nM | 1800 nM | 790 nM | 2050 nM |  |  |  | 
6 | O=C1CC[C@@H](CN2Cc3c(C(=O)NCc4ccc(Cl)cc4)nn(C4CCOC4)c3C2)N1 (single isomer, unassigned) [Compound 43] |  | 58.2 nM | 3290 nM |  |  | 3490 nM | 3550 nM | 2640 nM | 
7 | O=C1CC[C@@H](CN2Cc3c(C(=O)NCc4ccc(Cl)cc4)nn(C4CCOC4)c3C2)N1 (single isomer, unassigned) [Compound 44] | 2950 nM | 33.8 nM | 1100 nM | 2500 nM | 2370 nM |  |  |  | 
8 | CC(C1CC(F)C(=O)N1)N1Cc2c(C(=O)NCc3ccc(Cl)cc3)nn(C)c2C1 (single isomer, unassigned) [Compound 73] |  | 11.2 nM |  |  |  | 464 nM | 614 nM | 534 nM | 134 nM
9 | CC([C@@H]1CCC(=O)N1)N1Cc2c(C(=O)NCc3ccc(Cl)cc3)nn(C(F)F)c2C1 (stereo partly shown) [Compound 71] | 1080 nM | 76.2 nM |  | 2080 nM | 1210 nM |  |  |  | 
10 | CC(C1CC(F)C(=O)N1)N1Cc2c(C(=O)NCc3ccc(Cl)cc3)nn(C)c2C1 (stereo not shown) [Compound 74] |  | 815 nM | 28100 nM |  |  |  |  |  | 
11 | CC(C1CC(F)C(=O)N1)N1Cc2c(C(=O)NCc3ccc(Cl)cc3)nn(C)c2C1 (stereo not shown) [Compound 75] |  | 70.9 nM | 2020 nM |  |  |  |  |  | 
12 | Cn1nc(C(=O)NCc2ccc(Cl)cc2)c2c1CN(C[C@H]1CC(F)(F)C(=O)N1)C2 [Compound 81] |  | 557 nM |  |  |  |  |  |  | 1280 nM
13 | CC(C1CC(F)(F)C(=O)N1)N1Cc2c(C(=O)NCc3ccc(Cl)cc3)nn(C)c2C1 (stereo not shown) [Compound 84] |  | 13300 nM | 40000 nM |  |  |  |  |  | 
14 | CC(C1CC(F)(F)C(=O)N1)N1Cc2c(C(=O)NCc3ccc(Cl)cc3)nn(C)c2C1 (stereo not shown) [Compound 85] |  | 1050 nM | 3360 nM |  |  |  |  |  | 
15 | Cn1nc(C(=O)NCc2ccc(Cl)cc2)c2c1CN(CC1CCC(=O)N1)C2 (stereo not shown) [Compound 88] |  | 13300 nM | 33000 nM |  |  |  |  |  | 
16 | CCC(C1CCC(=O)N1)N1Cc2c(C(=O)NCc3ccc(Cl)cc3)nn(C)c2C1 (stereo not shown) [Compound 91] |  | 8610 nM | 99000 nM |  |  |  |  |  | 
17 | CCC(C1CCC(=O)N1)N1Cc2c(C(=O)NCc3ccc(Cl)cc3)nn(C)c2C1 (stereo not shown) [Compound 92] |  | 1180 nM | 65900 nM |  |  |  |  |  | 
18 | C=CC[C@]1(CN2Cc3c(C(=O)NCc4ccc(Cl)cc4)nn(C)c3C2)CCC(=O)N1 [Compound 96] |  | 144 nM |  |  |  |  |  |  | 1120 nM
19 | O=C(NCc1ccc(Cl)cc1)c1nn(C(F)F)c2c1CN(CC13CC(C1)C(=O)N3)C2 [Compound 98] |  | 534 nM |  |  |  |  |  |  | 1400 nM
20 | CC1c2c(c(C(=O)NCc3ccc(Cl)cc3)nn2C)CN1C(C)C1CCC(=O)N1 (stereo not shown) [Compound 110] |  | 2900 nM | 22200 nM |  |  |  |  |  | 
21 | CC(C)[C@H]1c2c(c(C(=O)NCc3ccc(Cl)cc3)nn2C)CN1C[C@H]1CCC(=O)N1 [Compound 113] |  | 188 nM | 4830 nM |  |  |  |  |  | 
22 | CC(C)[C@@H]1c2c(c(C(=O)NCc3ccc(Cl)cc3)nn2C)CN1C[C@@H]1CCC(=O)N1 [Compound 114] |  | 77.6 nM |  |  |  |  |  |  | 1100 nM
